These results are taken from PMC10516900 (Communications Biology, 2023).

One assay relates to USP7. As to conditions: cited from earlier work.
The subject of a further assay is USP47. As to conditions: cited from earlier work.
Assay [1] relates to multiple myeloma xenograft models. The note with it: in vitro and in vivo multiple myeloma xenograft models; cited from earlier work.
The target of the next assay is T1, hUSP7CD^N460AH461A (Homo sapiens, UniProt Q93009, H461A/N460A).
T1 construct: Swiss Prot entry: Q93009, residues 208–560; His6 (N); made in house; host or cells: E. coli BL21 (DE3) codon plus RIL
T1 sequence (Q93009 208-560 N460A/H461A): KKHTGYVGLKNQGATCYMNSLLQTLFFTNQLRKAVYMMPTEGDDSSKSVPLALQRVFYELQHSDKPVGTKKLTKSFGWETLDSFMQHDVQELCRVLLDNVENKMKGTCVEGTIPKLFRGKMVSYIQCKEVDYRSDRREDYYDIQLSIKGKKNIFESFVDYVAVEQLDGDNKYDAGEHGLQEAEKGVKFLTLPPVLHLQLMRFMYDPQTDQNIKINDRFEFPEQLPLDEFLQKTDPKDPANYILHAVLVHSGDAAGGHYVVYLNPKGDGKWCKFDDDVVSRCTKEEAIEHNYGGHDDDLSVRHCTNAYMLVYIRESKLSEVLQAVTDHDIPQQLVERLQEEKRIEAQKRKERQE
Put plainly: Ub-AMC enzymatic inhibition assay, hUSP7CD^N460AH461A. Format: biochemical. The note with it: FT671 5 μM, Fig. 5d.

The target in another assay is T2, hUSP7CD (Homo sapiens, UniProt Q93009).
T2 construct: Swiss Prot entry: Q93009, residues 208–560; His6 (N); made in house; host or cells: E. coli BL21 (DE3) codon plus RIL
T2 sequence (Q93009 208-560): as the sequence (Q93009 208-560 N460A/H461A) above, with A253N, A254H counted along it
Put plainly: Ub-AMC enzymatic inhibition assay, hUSP7CD. Type of assay: biochemical.

The next assay has as its system cUSP47CD^A416NA417H. Put plainly: Ub-AMC enzymatic inhibition assay, cUSP47CD^A416NA417H. As to conditions: FT671 5 μM, Fig. 5d. Format: biochemical, Caenorhabditis elegans. As to the method:
(§1) Enzymes and substrates were diluted in the reaction buffer (20 mM HEPES, pH 7.4, 150 mM NaCl, and 5 mM DTT) to a concentration of 5 μM for the substrate and 0.5 μM for the enzymes. At the indicated time points following the reaction initiation, 10 μL reaction aliquots were taken and the reaction was stopped by adding SDS sampling buffer and analyzed using SDS-PAGE. Then, the 4–15% gradient gel was stained with Coomassie Brilliant Blue R-250. USP enzymatic activity and inhibition assays were measured at room temperature using the cleavage-sensitive fluorogenic substrate Ub-AMC (Boston Biochem, U-550). The deubiquitination assay was performed following the protocol by Ernst et al.[30]. Briefly, enzyme activity assays were performed in assay buffer in 20 mM HEPES (pH 7.4), 100 mM NaCl, and 5 mM DTT) containing cUSP47CD (in 50 nM), hUSP47CD-UBL12 (in 100 nM) or hUSP7CD (in 100 nM) constructs and serial dilutions of Ub-AMC (final 35 μM). The AMC fluorescence emission was monitored at 460 nm (excitation at 380 nm) for 30–60 min using a SpectraMax M3 plate reader (Molecular Devices). […] The data were fitted using GraphPad Prism 7 (GraphPad Inc.). Fluorescence intensity was recorded every 45 s for 90 min. Data are presented as the mean ± SD (n = 3).

For a further assay, the system named is cUSP47CD^R309N. Put plainly: Ub-AMC enzymatic inhibition assay, cUSP47CD^R309N. The note with it: FT671 5 μM, Fig. 5d. Format: biochemical, Caenorhabditis elegans. As to the method:
as §1

Another assay concerns the target cUSP47CD (Caenorhabditis elegans, UniProt Q22240). Put plainly: Ub-AMC enzymatic inhibition assay, cUSP47CD. Type of assay: biochemical. On the set-up: Residual enzymatic activity, cUSP47CD_IC50(p50429): unit not given here. As to the method: as §1
The subject of another assay is cUSP47CD^R309NA416NA417H. Put plainly: Ub-AMC enzymatic inhibition assay, cUSP47CD^R309NA416NA417H. The note with it: FT671 5 μM, Fig. 5d, compared with the double mutant. Format: biochemical, Caenorhabditis elegans. As to the method: as §1
The target in the next assay is T3, Flag-USP7 (Homo sapiens, UniProt Q93009).
T3 construct: expressed in transfected cells; host or cells: HEK293T
T3 sequence (Q93009 whole entry): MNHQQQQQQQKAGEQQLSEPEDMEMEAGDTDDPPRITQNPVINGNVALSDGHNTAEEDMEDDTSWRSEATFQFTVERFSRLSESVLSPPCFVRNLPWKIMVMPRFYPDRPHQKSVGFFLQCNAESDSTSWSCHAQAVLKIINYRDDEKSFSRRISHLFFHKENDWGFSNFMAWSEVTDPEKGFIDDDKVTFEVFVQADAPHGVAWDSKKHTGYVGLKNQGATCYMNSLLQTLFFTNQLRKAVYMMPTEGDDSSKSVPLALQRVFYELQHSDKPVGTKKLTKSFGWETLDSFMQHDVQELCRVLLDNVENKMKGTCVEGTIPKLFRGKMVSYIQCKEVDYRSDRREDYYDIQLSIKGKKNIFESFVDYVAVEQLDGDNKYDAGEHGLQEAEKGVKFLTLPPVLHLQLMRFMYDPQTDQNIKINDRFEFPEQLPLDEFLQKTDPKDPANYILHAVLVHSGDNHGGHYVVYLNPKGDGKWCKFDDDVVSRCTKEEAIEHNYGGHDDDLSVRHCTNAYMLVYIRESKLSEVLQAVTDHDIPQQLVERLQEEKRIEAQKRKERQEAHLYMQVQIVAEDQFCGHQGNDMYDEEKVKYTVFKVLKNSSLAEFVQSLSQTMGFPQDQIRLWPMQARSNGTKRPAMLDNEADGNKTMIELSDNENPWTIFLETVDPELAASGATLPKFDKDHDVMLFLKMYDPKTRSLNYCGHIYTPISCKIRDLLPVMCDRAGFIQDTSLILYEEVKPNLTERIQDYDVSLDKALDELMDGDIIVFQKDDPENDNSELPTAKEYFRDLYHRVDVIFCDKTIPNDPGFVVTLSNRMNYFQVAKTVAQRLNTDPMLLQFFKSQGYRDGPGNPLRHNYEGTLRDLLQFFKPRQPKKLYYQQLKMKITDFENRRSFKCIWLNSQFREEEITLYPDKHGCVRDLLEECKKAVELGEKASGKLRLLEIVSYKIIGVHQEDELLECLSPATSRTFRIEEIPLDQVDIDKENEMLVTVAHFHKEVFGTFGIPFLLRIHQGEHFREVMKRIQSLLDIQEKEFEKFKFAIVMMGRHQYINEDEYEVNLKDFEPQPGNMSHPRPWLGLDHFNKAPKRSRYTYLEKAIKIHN
Put plainly: Immunoprecipitation and DUB assay with K48-linked ubiquitin chains, Flag-USP7 from treated HEK293T cells. Type of assay: cell-based. The note with it: HEK293T cells treated for 2 h, immunoprecipitated Flag-USP7, Fig. 2f. As to the method: Fig. 2 Biochemical properties of USP47. a Domain structure of USP47 and the constructs used in this study. b HEK293T cells were transfected with USP Flag-tagged mutants. […] The IC50 values were determined in triplicate and fitted to a four-parameter logistic dose-response curve. Data are expressed as means ± SD.
HEK293T cells transfected with pFlag-CMV-2 vector, pFlag-USP7, or pFlag-USP47 were treated with drugs, as indicated, and lysed by protein lysis buffer (20 mM Tris–Cl, 150 mM NaCl, 1 mM EDTA, 1 mM EGTA, 1% Triton X-100, 2.5 mM sodium pyrophosphate, 50 mM NaF, 5 mM β-glycerophosphate, 1 mM Na3VO4, 1x protease inhibitor, pH 7.5). […] Flag affinity gel was washed 5 times with lysis buffer and the supernatant was removed carefully with a syringe after the last wash step. For elution, Flag agarose was incubated with 3× Flag peptide (Sigma Aldrich) in elution buffer (15 μg of Flag peptide in 50 μl of lysis buffer) for 30 min at 4 °C. The supernatants were collected as immunoprecipitates. […] Samples were analyzed by Western blot and detected with the anti-ubiquitin antibody.

One may read the IC50 as the concentration needed to halve the response being measured.

“And” between values parts separate entries of the source, which are not always exact repeats. Equal values may be shown once.

Chain of cUSP47CD (Q22240 entry or part of it): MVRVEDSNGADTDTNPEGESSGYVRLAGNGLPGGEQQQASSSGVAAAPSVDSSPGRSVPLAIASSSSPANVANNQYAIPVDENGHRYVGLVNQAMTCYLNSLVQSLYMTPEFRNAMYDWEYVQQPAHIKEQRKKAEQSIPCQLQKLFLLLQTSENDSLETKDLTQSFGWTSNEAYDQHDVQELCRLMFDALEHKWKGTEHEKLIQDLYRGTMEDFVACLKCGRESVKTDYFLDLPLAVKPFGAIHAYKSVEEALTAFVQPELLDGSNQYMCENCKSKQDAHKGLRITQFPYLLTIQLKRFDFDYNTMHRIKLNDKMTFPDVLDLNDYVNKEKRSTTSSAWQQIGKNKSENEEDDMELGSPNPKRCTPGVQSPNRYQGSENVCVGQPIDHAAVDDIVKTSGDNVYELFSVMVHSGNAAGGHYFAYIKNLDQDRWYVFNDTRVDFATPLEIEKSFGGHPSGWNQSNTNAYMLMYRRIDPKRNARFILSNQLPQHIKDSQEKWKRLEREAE
Protocol for hUSP7CD^N460AH461A: Enzymes and substrates were diluted in the reaction buffer (20 mM HEPES, pH 7.4, 150 mM NaCl, and 5 mM DTT) to a concentration of 5 μM for the substrate and 0.5 μM for the enzymes. […] USP enzymatic activity and inhibition assays were measured at room temperature using the cleavage-sensitive fluorogenic substrate Ub-AMC (Boston Biochem, U-550). […] The AMC fluorescence emission was monitored at 460 nm (excitation at 380 nm) for 30–60 min using a SpectraMax M3 plate reader (Molecular Devices). […] The data were fitted using GraphPad Prism 7 (GraphPad Inc.). Fluorescence intensity was recorded every 45 s for 90 min. Data are presented as the mean ± SD (n = 3).

Regarding `CC(=O)c1cc([N+](=O)[O-])c(Sc2cccc(Cl)c2Cl)s1` [P5091, 1-[5-(2,3-dichlorophenylsulfanyl)−4-nitro-2thienl]ethanone], the IC50 in the assay on USP7 (read-out: IC50 USP7) is 4.2 µM; in the assay with USP47, 4.3 µM. Also, the antitumor efficacy entry in assay [1] is on record as “antitumor efficacy”.
With `O=C(C[C@@H](C(F)F)n1ccc(F)n1)N1CCC(O)(Cn2cnc3c(cnn3-c3ccc(F)cc3)c2=O)CC1` [FT671], the “reduction in the activity of hUSP7CD^N460AH461A in the presence of FT671” value on hUSP7CD^N460AH461A was ~ 80%. Further, at hUSP7CD (FT671 5 μM, Ub-AMC, Fig. 5d), the “inhibition of USP7 wild type by FT671” value was “complete inhibition”. Moreover, the “reduction in the activity of cUSP47CD^A416NA417H with FT671” value in the assay with cUSP47CD^A416NA417H is on record as roughly 40%. Further, in the assay with USP7 (recently reported USP7 inhibitors), the “potency and specificity for USP7” value is “high potency and specificity only for USP7”. In addition, the “change in activity of cUSP47CD^R309N with FT671” value in the assay with cUSP47CD^R309N is on record as “no change in the activity”. For the same compound, the “Enzyme activity cUSP47CD+FT671 relative to cUSP47CD without FT671 (=100)” value at cUSP47CD (FT671 5 μM, Ub-AMC 35 μM, mean and three replicates, 5 µM) is 108.41 and 98.6437 and 106.057. Also, the remaining activity at 5 µM at cUSP47CD (FT671 5 μM, Ub-AMC 35 μM, mean and three replicates, read-out: Enzyme activity cUSP47CD+FT671 relative to cUSP47CD without FT671 (=100)) was found to be 104%. In addition, on cUSP47CD (FT671 5 μM, Ub-AMC, Fig. 5d), the “inhibition of cUSP47CD wild type by FT671” value is recorded as “no inhibition”. Moreover, in the assay on cUSP47CD^R309NA416NA417H, the “inhibition of cUSP47CD^R309NA416NA417H by FT671” value is “even more inhibition”.
Regarding `CS(=O)(=O)c1ccc(NC(=O)c2cc(C#N)c(Sc3c(Cl)cncc3Cl)s2)cc1` [P50429], the IC50 stood at 5.3 ± 1 µM against hUSP7CD and 1.4 ± 0.2 µM at cUSP47CD (Ub-AMC, USP47 50 nM, 10 min at 25 °C, triplicate, mean ± SD). The “Residual enzymatic activity, cUSP47CD_IC50(p50429)” value on cUSP47CD (inhibitor concentration 0.0244141, three replicates, 0.0244141 µM) is 98.3931 and 102.68; on cUSP47CD (inhibitor concentration 0.0488281, three replicates, 0.0488281 µM) it was 94.8604 and 95.1269; on cUSP47CD (inhibitor concentration 0.0976562, three replicates, 0.0976562 µM), 90.0141 and 90.4933; on cUSP47CD (inhibitor concentration 0.195312, three replicates, 0.195312 µM), 70.9575 and 84.4737; on cUSP47CD (inhibitor concentration 0.390625, three replicates, 0.390625 µM), 71.1433 and 81.3617; at cUSP47CD (inhibitor concentration 0.78125, three replicates, 0.78125 µM), 64.5756 and 70.9586. For the same compound, the “Residual enzymatic activity, cUSP47CD_IC50(p50429)” value was 47.6458 and 50.9074 at cUSP47CD (inhibitor concentration 1.5625, three replicates, 1.5625 µM); 23.3806 and 22.8255 on cUSP47CD (inhibitor concentration 3.125, three replicates, 3.125 µM); 13.3082 and 13.4812 at cUSP47CD (inhibitor concentration 6.25, three replicates, 6.25 µM); 11.6652 and 7.474 at cUSP47CD (inhibitor concentration 12.5, three replicates, 12.5 µM); 6.001 and 6.389 on cUSP47CD (inhibitor concentration 25, three replicates, 25 µM); 4.2047 and -1.497 and -1.461 at cUSP47CD (inhibitor concentration 50 (0–50 μM series), three replicates, 50 µM). For the same compound, the remaining activity at 0.0244141 µM on cUSP47CD (inhibitor concentration 0.0244141, three replicates, read-out: Residual enzymatic activity, cUSP47CD_IC50(p50429)) amounted to 106%. For the same compound, on cUSP47CD (inhibitor concentration 0.0488281, three replicates, read-out: Residual enzymatic activity, cUSP47CD_IC50(p50429)), the remaining activity at 0.0488281 µM was determined as 100%. Besides, on cUSP47CD (inhibitor concentration 0.0976562, three replicates, read-out: Residual enzymatic activity, cUSP47CD_IC50(p50429)), the remaining activity at 0.0976562 µM is 86.3%. Further, the remaining activity at 0.195312 µM on cUSP47CD (inhibitor concentration 0.195312, three replicates, read-out: Residual enzymatic activity, cUSP47CD_IC50(p50429)) worked out at 90.3%. For the same compound, the remaining activity at 0.390625 µM on cUSP47CD (inhibitor concentration 0.390625, three replicates, read-out: Residual enzymatic activity, cUSP47CD_IC50(p50429)) worked out at 83.2%. For the same compound, the remaining activity at 0.78125 µM at cUSP47CD (inhibitor concentration 0.78125, three replicates, read-out: Residual enzymatic activity, cUSP47CD_IC50(p50429)) was 71.1%. For the same compound, the remaining activity at 1.5625 µM on cUSP47CD (inhibitor concentration 1.5625, three replicates, read-out: Residual enzymatic activity, cUSP47CD_IC50(p50429)) stood at 52.3%. Also, on cUSP47CD (inhibitor concentration 3.125, three replicates, read-out: Residual enzymatic activity, cUSP47CD_IC50(p50429)), the remaining activity at 3.125 µM is 24.7%. In addition, the remaining activity at 6.25 µM on cUSP47CD (inhibitor concentration 6.25, three replicates, read-out: Residual enzymatic activity, cUSP47CD_IC50(p50429)) was determined as 23%. Also, the remaining activity at 12.5 µM on cUSP47CD (inhibitor concentration 12.5, three replicates, read-out: Residual enzymatic activity, cUSP47CD_IC50(p50429)) is 11.3%. The remaining activity at 25 µM on cUSP47CD (inhibitor concentration 25, three replicates, read-out: Residual enzymatic activity, cUSP47CD_IC50(p50429)) came to 7.06%. For the same compound, on Flag-USP7, the “DUB activity on K48-linked ubiquitin chains” value is “inhibited the DUB activity”.
